These results are taken from US20230191357A1, “SYSTEM AND METHOD FOR ENHANCING THE REACTION POTENTIAL OF PRODUCTS GENERATED FROM IONIZATION, PHOTON-ENHANCED THERMIONIC EMISSION, MULTI PHOTON ABSORPTION, PHOTOOXIDATION, PHOTOCATALYTIC, AND PHOTOCHEMICAL REACTIONS WITH OXIDIZING AGENTS” (Bis Science LLC, priority 2021, published 2023).

Holding throughout (type): cell-based
The test system of test [1] is Staphylococcus aureus ATCC 6538. Description: Hydrogen peroxide exposed or not exposed to photons applied to inoculated target microbes. The note with it: contact time 5 Minutes; for CFU/ml: single replicates. The method, then: The test substances were hydrogen peroxide at 1 ppm and at 0.3%, which were exposed or not exposed to photons of 0.01 nm through 845 nm and applied to target of microbes, which included a carrier for the inoculated target microbes such as agar with a viable bacteria concentration of Staphylococcus aureus ATCC 6538. The control for this test was a similar inoculated plate and it was treated in the same manor but there was no application of photons to the oxidizing agent.

For a further test, the system named is E. coli ATCC 11229. Description: Carrier test of residual antimicrobial effect, 4 weeks post photon exposure. The note with it: contact time 10 Minutes, 4 weeks post exposure to radiation.
In test [2] the test system is viable cells (microbial counts). Description: Independent lab testing of the HVAC antimicrobial system utilizing Photon Augmented Oxidizing Agents (coupons, ambient air). The note with it: 1 part per million, 5 minute contact time with the ambient air.
Text: All test samples were compared against the Control provided. (Independent lab testing of the HVAC antimicrobial system utilizing Photon Augmented Oxidizing Agents).

Structures are written as SMILES. Where “and” joins values, the source holds several entries; their conditions need not be identical. Equal values may be shown once.

With `OO` [0.3% No photon emission, hydrogen peroxide], in test [1], the “Average CFU/ml” value is given as 4.05E+06 CFU/ml; the “Average Log10 Reduction Compared to Controls” value was “No Reduction”; the “Average Percent Reduction Compared to Controls” value was “No Reduction”; the CFU/ml is 4.10E+06 CFU/ml and 4.00E+06 CFU/ml.

In the case of `OO` [1 PPM No photon emission, hydrogen peroxide], in test [1], the “Average CFU/ml” value came out at 4.05E+06 CFU/ml, the “Average Log10 Reduction Compared to Controls” value was “No Reduction”, the “Average Percent Reduction Compared to Controls” value is “No Reduction” and the CFU/ml amounted to 4.10E+06 CFU/ml.

For `OO` [Control Substance, hydrogen peroxide], in the test with E. coli ATCC 11229, the “Average Log10 Reduction Compared to Controls” value is 0.11 Log10, the “Average Percent Reduction Compared to Controls” value is given as 23.08% and the CFU/Carrier was 3.00E+04 CFU/Carrier. The “Average Percent Reduction Compared to Controls” value in the test on E. coli ATCC 11229 (listed as control substance) was determined as 23.08%.

With `OO` [standard hydrogen peroxide, hydrogen peroxide], in test [2], the microbial reduction result is reported as “little or no microbial reduction”.
